Like-named read-outs stand apart in the source and are kept apart here.
Tests used:
[1] = test system: S. sonnei APV00908; assay: MIC and antibiogram; assay type: cell-based; conditions: Shigella sonnei, Table 22A
[2] = test system: K. pneumoniae EN0140; assay: MIC, AmpC (DHA-1); assay type: cell-based; conditions: Klebsiella pneumoniae, read-out: MIC
[3] = test system: S. flexneri APV00907; assay: MIC and antibiogram; assay type: cell-based; conditions: Shigella flexneri, Table 22A
Source text: Inhibition of Heliobacter is important in view of increasing resistance and its association to gastric cancer.

[4] = test system: S. epidermidis EN0456; assay: MIC; assay type: cell-based, Staphylococcus epidermidis; conditions: Staphylococcus epidermidis, read-out: MIC
[5] = test system: E. coli EN001; assay: MIC, WT (EN001 = EN0001, ATCC 25922); assay type: cell-based, Escherichia coli
[6] = test system: P. mirabilis ST19 EN0445; assay: MIC; assay type: cell-based, Proteus mirabilis; conditions: Proteus mirabilis, read-out: MIC
[7] = test system: E. coli EN012; assay: MIC, WT; assay type: cell-based, Escherichia coli; conditions: Escherichia coli, EN012, combination FdUrd+trimethoprim+uridine, Table 8; read-out: MIC
[8] = test system: K. pneumoniae EN0245; assay: MIC, colistinR; assay type: cell-based; conditions: Klebsiella pneumoniae, read-out: MIC
[9] = test system: E. coli B EN0458; assay: MIC; assay type: cell-based, Escherichia coli B; conditions: Escherichia coli, read-out: MIC
[10] = test system: E. coli EN0136; assay: MIC, ESBL (CTX-M-2); assay type: cell-based; conditions: Escherichia coli, read-out: MIC
[11] = test system: E. coli EN0134; assay: MIC, AmpC (CMY-4); assay type: cell-based; conditions: Escherichia coli, read-out: MIC
[12] = test system: E. aerogenes EN0461; assay: MIC; assay type: cell-based, Enterobacter aerogenes; conditions: Klebsiella aerogenes, read-out: MIC
[13] = test system: P. aeruginosa EN0459; assay: MIC; assay type: cell-based, Pseudomonas aeruginosa; conditions: Pseudomonas aeruginosa, read-out: MIC
[14] = test system: K. pneumoniae EN0145; assay: MIC, KPC-2; assay type: cell-based; conditions: Klebsiella pneumoniae, read-out: MIC
[15] = test system: E. coli EN0137; assay: MIC, ESBL (CTX-M-15); assay type: cell-based; conditions: Escherichia coli, read-out: MIC
[16] = test system: K. pneumoniae EN006; assay: MIC, WT (EN006 = EN0006, ATCC 13883); assay type: cell-based, Klebsiella pneumoniae
[17] = test system: A. baumannii EN007; assay: MIC, WT (EN007 = EN0007); assay type: cell-based, Acinetobacter baumannii
[18] = test system: K. pneumoniae EN0249; assay: MIC, colistinR; assay type: cell-based; conditions: Klebsiella pneumoniae, read-out: MIC
[19] = combination FdUrd+trimethoprim+uridine, Table 19
[20] = combination didanosine+trimethoprim+uridine, Table 20
[21] = combination AZT+trimethoprim+uridine, Table 17B

## COc1cc(Cc2cnc(N)nc2N)cc(OC)c1OC [Trimethoprim, trimethoprim]
[1]; APV00908, combination AZT+trimethoprim+uridine
  MIC: 0.03 µg/mL
[1]; APV00908, combination FdUrd+trimethoprim+uridine
  MIC: > 8 µg/mL
[2]; EN0140, combination AZT+trimethoprim+uridine, Table 17B
  MIC: 1 µg/mL
[2]; EN0140, combination FdUrd+trimethoprim+uridine, Table 19
  MIC: > 8 µg/mL
[2]; EN0140, combination didanosine+trimethoprim+uridine, Table 20
  MIC: > 8 µg/mL
[3]; APV00907, combination AZT+trimethoprim+uridine
  MIC: 2 µg/mL
[3]; APV00907, combination FdUrd+trimethoprim+uridine
  MIC: > 8 µg/mL
[4]; EN0456, Combination 1 AZT+trimethoprim+uridine, Table 16
  MIC: 0.064 µg/mL
[4]; EN0456, Combination 2 AZT+trimethoprim+uridine+thymidine, Table 16
  MIC: 2 µg/mL
[4]; EN0456, combination AZT+trimethoprim+uridine, Table 6
  MIC: 0.06 µg/mL
[4]; EN0456, combination FdUrd+trimethoprim+uridine, Table 8
  MIC: < 0.016 µg/mL
[5]; Escherichia coli, EN001, Combination 1 AZT+trimethoprim+uridine, Table 16, read-out: MIC
  MIC: 0.064 µg/mL
[5]; Escherichia coli, EN001, combination FdUrd+trimethoprim+uridine, Table 8, read-out: MIC
  MIC: 0.25 µg/mL
[5]; Escherichia coli, EN001, combination didanosine+trimethoprim+uridine, Table 10, read-out: MIC
  MIC: 0.25 µg/mL
[5]; [19]
  MIC: 0.5 µg/mL
[5]; [20]
  MIC: 0.5 µg/mL
[6]; ST19EN0445, Combination 1 AZT+trimethoprim+uridine, Table 16
  MIC: 1 µg/mL
[6]; ST19EN0445, Combination 2 AZT+trimethoprim+uridine+thymidine, Table 16
  MIC: > 4 µg/mL
[6]; ST19EN0445, combination AZT+trimethoprim+uridine, Table 6
  MIC: > 4 µg/mL
[6]; ST19EN0445, combination FdUrd+trimethoprim+uridine, Table 8
  MIC: 1 µg/mL
[6]; ST19EN0445, combination didanosine+trimethoprim+uridine, Table 10
  MIC: 2 µg/mL
[7]
  MIC: 0.064 µg/mL
[8]; EN0245, combination AZT+trimethoprim+uridine, Table 17B
  MIC: 1 µg/mL
[8]; EN0245, combination FdUrd+trimethoprim+uridine, Table 19
  MIC: > 8 µg/mL
[8]; EN0245, combination didanosine+trimethoprim+uridine, Table 20
  MIC: > 8 µg/mL
[9]; BEN0458, combination FdUrd+trimethoprim+uridine, Table 8
  MIC: 0.064 µg/mL
[9]; BEN0458, combination didanosine+trimethoprim+uridine, Table 10
  MIC: 0.064 µg/mL
[10]; EN0136, combination FdUrd+trimethoprim+uridine, Table 19
  MIC: 2 µg/mL
[10]; EN0136, combination didanosine+trimethoprim+uridine, Table 20
  MIC: > 8 µg/mL
[11]; EN0134, combination FdUrd+trimethoprim+uridine, Table 19
  MIC: > 8 µg/mL
[11]; EN0134, combination didanosine+trimethoprim+uridine, Table 20
  MIC: > 8 µg/mL
[12]; EN0461, Combination 1 AZT+trimethoprim+uridine, Table 16
  MIC: 0.25 µg/mL
[12]; EN0461, Combination 2 AZT+trimethoprim+uridine+thymidine, Table 16
  MIC: 2 µg/mL
[12]; EN0461, combination AZT+trimethoprim+uridine, Table 6
  MIC: 0.25 µg/mL
[12]; EN0461, combination FdUrd+trimethoprim+uridine, Table 8
  MIC: 2 µg/mL
[12]; EN0461, combination didanosine+trimethoprim+uridine, Table 10
  MIC: 1 µg/mL
[13]; EN0459, Combination 1 AZT+trimethoprim+uridine, Table 16
  MIC: > 4 µg/mL
[13]; EN0459, Combination 2 AZT+trimethoprim+uridine+thymidine, Table 16
  MIC: > 4 µg/mL
[13]; EN0459, combination AZT+trimethoprim+uridine, Table 6
  MIC: > 4 µg/mL
[13]; EN0459, combination FdUrd+trimethoprim+uridine, Table 8
  MIC: > 8 µg/mL
[13]; EN0459, combination didanosine+trimethoprim+uridine, Table 10
  MIC: > 8 µg/mL
[14]; EN0145, combination AZT+trimethoprim+uridine, Table 17B
  MIC: 2 µg/mL
[14]; EN0145, combination FdUrd+trimethoprim+uridine, Table 19
  MIC: > 8 µg/mL
[14]; EN0145, combination didanosine+trimethoprim+uridine, Table 20
  MIC: > 8 µg/mL
[15]; EN0137, combination FdUrd+trimethoprim+uridine, Table 19
  MIC: > 8 µg/mL
[15]; EN0137, combination didanosine+trimethoprim+uridine, Table 20
  MIC: > 8 µg/mL
[16]; Klebsiella pneumoniae, EN006, Combination 2 AZT+trimethoprim+uridine+thymidine, Table 16, read-out: MIC
  MIC: 0.5 µg/mL
[16]; Klebsiella pneumoniae, EN006, combination AZT+trimethoprim+uridine, Table 6, read-out: MIC
  MIC: 0.06 µg/mL
[16]; Klebsiella pneumoniae, EN006, combination FdUrd+trimethoprim+uridine, Table 8, read-out: MIC
  MIC: 1 µg/mL
[16]; Klebsiella pneumoniae, EN006, combination didanosine+trimethoprim+uridine, Table 10, read-out: MIC
  MIC: 1 µg/mL
[16]; [21]
  MIC: 0.25 µg/mL
[16]; [19]
  MIC: 1 µg/mL
[16]; [20]
  MIC: 1 µg/mL
[17]; Acinetobacter baumannii, EN007, Combination 1 AZT+trimethoprim+uridine, Table 16, read-out: MIC
  MIC: > 4 µg/mL
[17]; Acinetobacter baumannii, EN007, Combination 2 AZT+trimethoprim+uridine+thymidine, Table 16, read-out: MIC
  MIC: > 4 µg/mL
[17]; Acinetobacter baumannii, EN007, combination AZT+trimethoprim+uridine, Table 6, read-out: MIC
  MIC: > 4 µg/mL
[17]; Acinetobacter baumannii, EN007, combination FdUrd+trimethoprim+uridine, Table 8, read-out: MIC
  MIC: > 8 µg/mL
[17]; Acinetobacter baumannii, EN007, combination didanosine+trimethoprim+uridine, Table 10, read-out: MIC
  MIC: > 8 µg/mL
[17]; [21]
  MIC: >4 µg/mL
[17]; [19]
  MIC: >8 µg/mL
[17]; [20]
  MIC: >8 µg/mL
[18]; EN0249, combination AZT+trimethoprim+uridine, Table 17B
  MIC: 1 µg/mL
[18]; EN0249, combination FdUrd+trimethoprim+uridine, Table 19
  MIC: > 8 µg/mL
[18]; EN0249, combination didanosine+trimethoprim+uridine, Table 20
  MIC: > 8 µg/mL

Reference: US10828317B2, “Method of treating bacterial infections” (priority 2016, dated 2020)
